Source: ChEMBL document CHEMBL1201862, “PubChem BioAssay data set” (2004)
The source made the active and inactive calls.

Key:
[1] = cytotoxicity in HEK-293T cells, dose response, cytotoxicity control for BCR NF-kB inhibitor project, luminescence, B-cell screen hits (AID 489021); type: functional, cell-based;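 note: HEK-293T cells carrying an NF-kB luciferase reporter; cells exposed to compound for about 14 hours before viability readout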
cells [2] = type: functional, cell-based
Jurkat = experiment: SAR Analysis of small molecule inhibitors of […] specific antigen receptor-induced NF-kB activation in a Jurkat cell line using a luminescence assay - Set 3. [Related pubchem assays (depositor defined):AID435022, AID435025, AID465]; type: functional, cell-based; settings: Homo sapiens
[3] = inhibitors of SNCA 5'UTR-driven reporter translation, confirmation, H4 neuroglioma cells, luminescence (AID 1988); type: functional, cell-based
HEK293 [4] = experiment: SAR Analysis of small molecule inhibitors of B-cell specific antigen receptor-induced NF-kB activation in a HEK-293T cell line using a luminescence assay - Set 2. [Related pubchem assays (depositor defined):AID435022, AID435025, AID489021]; type: functional, cell-based; settings: Homo sapiens
[5] = inhibitors of SNCA 5'UTR-driven translation, confirmation, luminescence, H4 neuroglioblastoma cells, dose confirmation (AID 2454); type: functional, cell-based;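 note: H4 neuroglioblastoma cells carrying an alpha-synuclein 5'UTR luciferase reporter; potency for inhibition of the luciferase signal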
[6] = luciferase reporter signal reduction – luminescence, H4-C neuroglioblastoma cells, dose response (AID 2458); type: functional, cell-based;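 note: H4 neuroglioblastoma cells stably carrying a luciferase reporter gene fusion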
[7] = Luminescence-based counterscreen assay for KLF5 inhibitors: dose response cell-based high throughput screening assay to identify cytotoxic compounds using the IEC-6 intestinal epithelial cell line. [Related pubchem assays: 1700 (Primary screen.), 1834 (Confirmation screen.), 1858 (Summary AID.), 1905 (Counterscreen.)]; type: functional
HEK293 [8] = experiment: cytotoxicity in HEK293T NF-kB-Luc cells, SAR follow-up, cytotoxicity control for NF-kB activator project, cell-based, resazurin fluorescence (AID 493251); type: functional; settings: Homo sapiens
[9] = Luminescence Cell-Based Dose Response HTS to Identify Inhibitors of 5'UTR Stem-Loop Driven Prion Protein mRNA Translation in H4 Neuroglioblastoma Cells. [Related pubchem assays: 1827 (Project Summary), 1813 (Primary HTS)]; type: functional
[10] = inhibitors of firefly luciferase expression or activity, dose response, H4 neuroglioma cells, luminescence (AID 1990); type: functional, cell-based
[11] = target: T1, Voltage-dependent T-type calcium channel subunit alpha-1H (Homo sapiens, UniProt O95180); experiment: Cav3.2 T-type channel inhibitors, synthesized analogs, SAR follow-up, cell-based, synthetic library set 2, HEK293 HH8, Fluo-4 (AID 493023); type: functional
T1 sequence (O95180 whole entry): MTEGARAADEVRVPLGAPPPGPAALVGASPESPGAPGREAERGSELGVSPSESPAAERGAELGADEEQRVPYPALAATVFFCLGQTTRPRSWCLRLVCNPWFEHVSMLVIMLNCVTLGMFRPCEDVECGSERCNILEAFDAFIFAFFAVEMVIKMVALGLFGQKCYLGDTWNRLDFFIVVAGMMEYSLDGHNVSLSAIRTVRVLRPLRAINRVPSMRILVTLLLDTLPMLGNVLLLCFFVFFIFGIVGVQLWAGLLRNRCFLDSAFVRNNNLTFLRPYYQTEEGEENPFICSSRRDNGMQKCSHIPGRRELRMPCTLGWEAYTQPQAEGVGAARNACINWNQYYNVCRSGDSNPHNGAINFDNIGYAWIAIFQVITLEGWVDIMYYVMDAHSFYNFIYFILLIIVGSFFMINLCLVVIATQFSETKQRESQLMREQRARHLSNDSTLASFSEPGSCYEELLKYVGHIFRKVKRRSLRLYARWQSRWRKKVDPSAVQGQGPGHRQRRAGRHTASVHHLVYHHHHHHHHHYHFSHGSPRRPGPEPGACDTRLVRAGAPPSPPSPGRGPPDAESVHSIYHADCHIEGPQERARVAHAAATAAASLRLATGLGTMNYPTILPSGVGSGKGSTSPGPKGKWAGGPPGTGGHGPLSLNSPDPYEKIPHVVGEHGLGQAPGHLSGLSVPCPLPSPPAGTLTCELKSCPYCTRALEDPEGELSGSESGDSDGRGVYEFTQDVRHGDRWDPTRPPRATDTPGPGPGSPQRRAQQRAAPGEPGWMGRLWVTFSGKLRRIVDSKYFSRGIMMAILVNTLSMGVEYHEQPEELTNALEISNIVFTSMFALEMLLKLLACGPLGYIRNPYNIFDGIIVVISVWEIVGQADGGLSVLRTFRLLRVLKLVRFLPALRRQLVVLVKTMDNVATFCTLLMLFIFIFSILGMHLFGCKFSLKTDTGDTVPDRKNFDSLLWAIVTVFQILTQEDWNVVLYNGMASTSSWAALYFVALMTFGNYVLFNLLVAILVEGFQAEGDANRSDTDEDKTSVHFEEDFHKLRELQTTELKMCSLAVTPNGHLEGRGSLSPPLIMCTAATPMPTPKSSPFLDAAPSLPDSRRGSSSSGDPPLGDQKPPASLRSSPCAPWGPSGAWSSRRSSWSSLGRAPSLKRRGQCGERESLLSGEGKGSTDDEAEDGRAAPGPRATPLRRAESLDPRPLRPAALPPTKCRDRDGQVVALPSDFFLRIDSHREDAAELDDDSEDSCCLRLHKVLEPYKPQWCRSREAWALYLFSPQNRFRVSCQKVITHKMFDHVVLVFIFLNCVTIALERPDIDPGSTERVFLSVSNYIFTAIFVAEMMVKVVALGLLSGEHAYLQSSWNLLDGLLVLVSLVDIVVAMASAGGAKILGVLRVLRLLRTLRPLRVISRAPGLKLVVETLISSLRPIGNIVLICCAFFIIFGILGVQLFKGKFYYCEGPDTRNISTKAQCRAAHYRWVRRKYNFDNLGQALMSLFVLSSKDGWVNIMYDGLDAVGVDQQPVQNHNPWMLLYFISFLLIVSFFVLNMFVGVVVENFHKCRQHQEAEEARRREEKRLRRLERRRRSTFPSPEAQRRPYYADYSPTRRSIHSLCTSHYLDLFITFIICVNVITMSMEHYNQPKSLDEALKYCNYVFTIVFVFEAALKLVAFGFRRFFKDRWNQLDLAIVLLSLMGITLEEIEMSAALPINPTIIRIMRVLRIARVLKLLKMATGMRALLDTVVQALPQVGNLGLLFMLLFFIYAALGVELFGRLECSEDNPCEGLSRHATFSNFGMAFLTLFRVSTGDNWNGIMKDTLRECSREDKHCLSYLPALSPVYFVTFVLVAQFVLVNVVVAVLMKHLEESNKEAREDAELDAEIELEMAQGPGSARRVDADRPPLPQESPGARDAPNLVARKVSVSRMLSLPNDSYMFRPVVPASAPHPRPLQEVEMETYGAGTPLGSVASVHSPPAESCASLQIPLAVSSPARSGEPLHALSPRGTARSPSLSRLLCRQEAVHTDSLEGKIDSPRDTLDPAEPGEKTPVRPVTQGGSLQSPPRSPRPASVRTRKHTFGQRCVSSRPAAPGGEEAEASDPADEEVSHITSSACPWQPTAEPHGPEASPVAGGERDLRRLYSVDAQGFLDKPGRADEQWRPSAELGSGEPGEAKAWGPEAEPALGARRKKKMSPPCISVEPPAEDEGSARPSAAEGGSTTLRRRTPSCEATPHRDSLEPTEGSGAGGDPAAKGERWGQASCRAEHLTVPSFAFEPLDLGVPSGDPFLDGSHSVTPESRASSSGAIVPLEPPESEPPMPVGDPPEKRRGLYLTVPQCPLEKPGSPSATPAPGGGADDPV

[12] = target: T1, Voltage-dependent T-type calcium channel subunit alpha-1H; experiment: Cav3.2 T-type channel blockers, cell-based, SynthLib3 library, HEK293 Cav3.2, fluorescence (AID 493041); type: functional
[13] = target: T2, Trace amine-associated receptor 1 (Homo sapiens, UniProt Q96RJ0); experiment: Fluorescence-based cell-based high throughput dose response assay to identify agonists of the human trace amine associated receptor 1 (TAAR1).; type: functional
T2 sequence (Q96RJ0 whole entry): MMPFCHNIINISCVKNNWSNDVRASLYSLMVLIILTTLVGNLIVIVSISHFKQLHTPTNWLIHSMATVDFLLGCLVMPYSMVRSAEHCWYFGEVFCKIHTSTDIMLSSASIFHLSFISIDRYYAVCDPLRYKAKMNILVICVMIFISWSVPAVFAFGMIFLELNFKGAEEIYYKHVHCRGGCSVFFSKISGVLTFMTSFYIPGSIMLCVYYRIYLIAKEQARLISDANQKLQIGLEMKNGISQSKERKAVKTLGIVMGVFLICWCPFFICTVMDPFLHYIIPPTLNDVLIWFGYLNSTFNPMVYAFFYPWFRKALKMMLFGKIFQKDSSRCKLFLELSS

[14] = target: T3, Dual specificity protein phosphatase 3 (Homo sapiens, UniProt P51452); experiment: SAR VHR1 Fluorescent Assay for In Vitro dose response studies Set 2. [Related pubchem assays (depositor defined):AID1654, AID1661, AID1878]; type: functional
T3 sequence (P51452 whole entry): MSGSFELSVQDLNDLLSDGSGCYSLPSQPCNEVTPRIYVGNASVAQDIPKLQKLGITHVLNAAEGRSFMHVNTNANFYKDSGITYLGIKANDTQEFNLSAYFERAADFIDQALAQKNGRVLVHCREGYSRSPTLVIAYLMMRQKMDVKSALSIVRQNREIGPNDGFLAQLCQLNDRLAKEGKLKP

[15] = target: Tyrosine-protein phosphatase non-receptor type 5 (Homo sapiens, UniProt P54829); experiment: STEP phosphatase inhibitors, confirmation, biochemical, fluorescence intensity, uHTS hits (AID 602372); type: functional; settings: read-out: IC50_Mean
Sequence of Tyrosine-protein phosphatase non-receptor type 5 (P54829 whole entry): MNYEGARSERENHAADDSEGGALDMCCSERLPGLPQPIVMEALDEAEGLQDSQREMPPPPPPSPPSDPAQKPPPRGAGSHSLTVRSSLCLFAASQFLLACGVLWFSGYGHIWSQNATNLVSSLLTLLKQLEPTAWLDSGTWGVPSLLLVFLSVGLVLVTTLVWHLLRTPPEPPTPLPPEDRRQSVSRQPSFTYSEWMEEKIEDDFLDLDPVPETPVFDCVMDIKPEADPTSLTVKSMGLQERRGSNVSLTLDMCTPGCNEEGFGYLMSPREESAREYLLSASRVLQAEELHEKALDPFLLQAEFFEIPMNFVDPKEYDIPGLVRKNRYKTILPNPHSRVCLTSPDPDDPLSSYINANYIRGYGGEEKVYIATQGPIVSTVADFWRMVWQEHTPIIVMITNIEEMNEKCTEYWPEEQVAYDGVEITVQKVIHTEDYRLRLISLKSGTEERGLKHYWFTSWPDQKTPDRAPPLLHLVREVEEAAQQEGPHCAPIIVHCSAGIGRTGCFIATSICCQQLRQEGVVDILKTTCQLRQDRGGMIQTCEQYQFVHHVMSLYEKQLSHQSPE

[16] = target: T4, Tyrosine-protein phosphatase non-receptor type 7 (Homo sapiens, UniProt P35236); experiment: redox-dependent HePTP inhibition, mechanism study, biochemical, fluorescence (AID 2068); type: functional
T4 sequence (P35236 whole entry): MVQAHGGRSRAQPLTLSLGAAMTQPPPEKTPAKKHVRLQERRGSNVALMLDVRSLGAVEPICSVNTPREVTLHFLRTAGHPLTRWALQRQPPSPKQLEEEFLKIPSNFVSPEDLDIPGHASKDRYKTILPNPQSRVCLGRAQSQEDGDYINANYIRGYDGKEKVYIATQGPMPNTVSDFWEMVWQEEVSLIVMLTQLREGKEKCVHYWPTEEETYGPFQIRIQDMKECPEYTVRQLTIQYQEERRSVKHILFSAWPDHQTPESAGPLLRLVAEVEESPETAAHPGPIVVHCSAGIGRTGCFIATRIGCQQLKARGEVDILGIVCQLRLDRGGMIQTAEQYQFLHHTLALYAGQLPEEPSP

[17] = target: T5, Dual specificity protein phosphatase 6 (Rattus norvegicus, UniProt Q64346); experiment: SAR analysis of inhibitors of MKP-3 - Set 2. [Related pubchem assays (depositor defined):AID1055, AID1661, AID425, AID553, AID566]; type: functional
T5 sequence (Q64346 whole entry): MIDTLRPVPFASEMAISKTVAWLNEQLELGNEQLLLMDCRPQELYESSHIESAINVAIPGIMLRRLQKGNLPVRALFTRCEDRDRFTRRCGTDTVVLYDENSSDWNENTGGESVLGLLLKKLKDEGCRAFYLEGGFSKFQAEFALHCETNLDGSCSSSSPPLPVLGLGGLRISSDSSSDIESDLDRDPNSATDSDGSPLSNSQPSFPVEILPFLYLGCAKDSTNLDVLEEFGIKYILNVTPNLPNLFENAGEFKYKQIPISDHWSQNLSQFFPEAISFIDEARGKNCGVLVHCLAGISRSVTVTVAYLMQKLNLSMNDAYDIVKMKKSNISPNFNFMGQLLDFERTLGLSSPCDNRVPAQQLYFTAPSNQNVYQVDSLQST

[18] = target: T3, Dual specificity protein phosphatase 3; experiment: SAR VHR1 Fluorescent Assay for In Vitro dose response studies. [Related pubchem assays (depositor defined):AID1654, AID1661, AID1878, AID1992, AID2004, AID2070, AID2085]; type: functional
[19] = target: T3, Dual specificity protein phosphatase 3; experiment: VHR1 phosphatase inhibitors, biochemical (AID 1878)
[20] = target: T2, Trace amine-associated receptor 1; experiment: Counterscreen for agonists of the human trace amine associated receptor 1 (hTAAR1): Fluorescence-based cell-based high throughput dose response assay to identify hTAAR1 agonist that also desensitize TAAR1 receptor response.; type: functional
[21] = target: T3, Dual specificity protein phosphatase 3; experiment: VHR1 phosphatase inhibitors, primary screen, biochemical, absorbance, uHTS (AID 1654)
[22] = target: T4, Tyrosine-protein phosphatase non-receptor type 7; experiment: SAR analysis of chemical inhibitors of HePTP using a Fluorescent assay - Set 2. [Related pubchem assays (depositor defined):AID1059, AID1077, AID1661, AID2085, AID521]; type: functional
cells [23] = type: functional, cell-based; remark: listed apart in the source
[24] = target: Tyrosine-protein phosphatase non-receptor type 11 (Homo sapiens, UniProt Q06124); experiment: SHP2 phosphatase inhibition, dose response, selectivity assay for STEP inhibitor project, biochemical (AID 602367); type: functional; settings: read-out: IC50_Mean
Sequence of Tyrosine-protein phosphatase non-receptor type 11 (Q06124 whole entry): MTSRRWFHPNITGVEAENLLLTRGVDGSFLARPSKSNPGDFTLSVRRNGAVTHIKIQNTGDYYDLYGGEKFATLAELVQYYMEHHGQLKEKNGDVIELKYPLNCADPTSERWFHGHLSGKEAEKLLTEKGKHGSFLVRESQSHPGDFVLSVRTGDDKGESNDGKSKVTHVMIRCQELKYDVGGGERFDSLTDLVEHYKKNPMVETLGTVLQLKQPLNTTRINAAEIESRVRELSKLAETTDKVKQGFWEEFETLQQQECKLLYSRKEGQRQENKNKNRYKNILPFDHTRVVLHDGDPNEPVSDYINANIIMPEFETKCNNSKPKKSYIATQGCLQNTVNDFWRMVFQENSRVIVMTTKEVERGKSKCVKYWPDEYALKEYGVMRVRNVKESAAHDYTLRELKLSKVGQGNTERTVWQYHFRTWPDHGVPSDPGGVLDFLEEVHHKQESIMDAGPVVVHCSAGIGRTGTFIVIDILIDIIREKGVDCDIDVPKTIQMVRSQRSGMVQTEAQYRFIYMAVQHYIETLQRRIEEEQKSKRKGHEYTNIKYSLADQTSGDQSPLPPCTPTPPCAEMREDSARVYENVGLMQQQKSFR

[25] = target: T5, Dual specificity protein phosphatase 6; experiment: MKP-3 phosphatase inhibitors, primary screen, biochemical, rat enzyme, in vitro (AID 425)
[26] = target: T5, Dual specificity protein phosphatase 6; type: functional
[27] = target: T3, Dual specificity protein phosphatase 3; experiment: VHR phosphatase inhibition, dose response, selectivity assay for STEP inhibitor project, biochemical (AID 602374); type: functional; settings: read-out: IC50_Mean
cells [28] = type: functional, cell-based; remark: listed apart in the source
[29] = target: T3, Dual specificity protein phosphatase 3; experiment: SAR VHR1 absorbance Assay for In Vitro dose response studies. [Related pubchem assays (depositor defined):AID1654, AID1661, AID1878, AID1992, AID2004]

With `CC(C)(C)c1ccc(-c2noc(CCC(=O)Nc3cccnc3)n2)cc1` the IC50 [1] was > 80000 nM (inactive), the EC50 (cells [2]) was 321 nM (active) and the IC50 (Jurkat) was 435 nM (active). For the same molecule, the EC50 [3] was < 100 nM (active), the IC50 (HEK293 [4]) was 470 nM (active) and the EC50 [5] was 774 nM (active). The EC50 [6] was 1180 nM (active), the IC50 [7] was > 39800 nM (not active) and the IC50 (HEK293 [8]) was 20500 nM (inactive). The EC50 [9] was < 100 nM (active) and the EC50 [10] was < 100 nM (active).

With `CC(C)(C)CCN1CC2CCC(NC(=O)c3cc(Cl)cc(Cl)c3)C2C1` (stereo not given) the EC50 [11] was 660 nM (active) and the EC50 [12] was 80 nM (active).

In the case of `S=C(NCCc1ccccc1)Nc1c(Cl)cccc1Cl`, the EC50 [13] was 565 nM (active), the IC50 [14] was 347 nM (active) and the IC50 [15] was 14500 nM (active). For the same molecule, the IC50 [16] was 34.5 nM (active), the IC50 [17] was > 100000 nM (inactive) and the IC50 [18] was > 99000 nM (inactive). The IC50 [19] was 4310 nM (active), the IC50 [20] was 4110 nM (active) and the IC50 [21] was 2440 nM (active). For the same molecule, the IC50 [22] was 447 nM (active), the IC50 (cells [23]) was > 29900 nM (inactive) and the IC50 [24] was 5760 nM (active). The IC50 [25] was > 158000 nM (not active), the IC50 [26] was > 99000 nM (inactive) and the IC50 [27] was 1120 nM (active). The EC50 (cells [28]) was > 29900 nM (inactive) and the IC50 [29] was 342 nM (active).
